What was measured:
human NHE3 = biological target: T1, human NHE3 (Homo sapiens, UniProt P48764); experiment: Cell-based assay of NHE-3 activity (pre-incubation inhibition), human; conditions: for IC50: PS120 fibroblasts stably expressing human NHE3, 10 min pre-incubation with 0-30 μM test compound, read-out: pIC50 (human Preincubation assay) (converted); for % inhibition (human Preincubation assay): PS120 fibroblasts stably expressing human NHE3, pre-incubation with test compound
T1 sequence (P48764 26-834): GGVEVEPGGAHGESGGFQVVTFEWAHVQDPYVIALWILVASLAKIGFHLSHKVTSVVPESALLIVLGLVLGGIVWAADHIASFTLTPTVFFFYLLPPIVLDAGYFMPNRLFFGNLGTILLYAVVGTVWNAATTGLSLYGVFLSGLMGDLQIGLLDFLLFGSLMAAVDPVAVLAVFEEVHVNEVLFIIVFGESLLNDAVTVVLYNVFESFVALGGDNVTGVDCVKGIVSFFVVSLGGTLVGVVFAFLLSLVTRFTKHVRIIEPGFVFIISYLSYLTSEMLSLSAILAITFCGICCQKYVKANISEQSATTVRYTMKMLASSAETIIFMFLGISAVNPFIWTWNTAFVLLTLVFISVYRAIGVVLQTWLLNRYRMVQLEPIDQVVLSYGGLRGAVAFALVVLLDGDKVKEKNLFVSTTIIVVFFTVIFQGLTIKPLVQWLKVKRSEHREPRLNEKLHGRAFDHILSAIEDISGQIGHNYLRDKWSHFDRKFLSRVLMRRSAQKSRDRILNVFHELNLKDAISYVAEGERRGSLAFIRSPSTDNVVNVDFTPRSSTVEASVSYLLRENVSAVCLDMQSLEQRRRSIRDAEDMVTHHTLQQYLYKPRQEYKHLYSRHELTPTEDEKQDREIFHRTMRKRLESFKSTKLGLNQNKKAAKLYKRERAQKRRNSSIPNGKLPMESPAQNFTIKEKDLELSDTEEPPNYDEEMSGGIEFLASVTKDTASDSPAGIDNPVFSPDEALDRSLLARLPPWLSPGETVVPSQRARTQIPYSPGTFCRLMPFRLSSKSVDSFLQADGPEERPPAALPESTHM
Protocol: Rat and human NHE-3-mediated Na^+-dependent H^+ antiport was measured using a modification of the pH sensitive dye method originally reported by Paradiso (Proc. Natl. Acad. Sci. USA. (1984) 81(23): 7436-7440, which is hereby incorporated by reference in its entirety). PS120 fibroblasts stably expressing human NHE3 were obtained from Mark Donowitz (Baltimore, Md.). Opossum kidney (OK) cells were obtained from the ATCC and propagated per their instructions. The rat NHE-3 gene (GenBank M85300) was introduced into OK cells via electroporation, and cells were seeded into 96 well plates and grown overnight. Medium was aspirated from the wells then incubated for 30 min at 37° C. with NH4Cl-HEPES buffer (20 mM NH4Cl, 80 mM NaCl, 50 mM HEPES, 5 mM KCl, 2 mM CaCl2, 1 mM MgCl2, pH 7.4) containing 5 μM BCECF-AM. Cells were washed once with Ammonium free, Nat-free HEPES (100 mM choline, 50 mM HEPES, 10 mM glucose, 5 mM KCl, 2 mM CaCl2, 1 mM MgCl2, pH 7.4) and incubated in the same buffer for 10 minutes at room temperature to lower intracellular pH with 0-30 μM test compound. […] Changes in intracellular pH were monitored using a FLIPR Tetra® (Molecular Devices, Sunnyvale, Calif.) by excitation at λex 439 to 505 nm, and measuring BCECF fluorescence at λem 538 nm. The initial rate of the fluorescence ratio change was used as a measure of NHE-mediated Na^+/H^+ activity, and reported as the change in fluorescence ratio per minute. Initial rates were plotted as the average 2 or more replicates, and pIC50 values were estimated using GraphPad Prism.

[1] = test system: absorption of sodium from the intestinal lumen; experiment: Inhibition of intestinal sodium absorption: rat urinary sodium and fecal form 16 h post-dose; type: in vivo, Sprague-Dawley rats; conditions: for FFS (fecal form score): 16 h post-dose, scale 1-5, group average; for response vs control in vivo at 10 mg/kg / response vs control in vivo at 3 mg/kg: urine 16 h post-dose, read-out: uNa Result, uNa (% of vehicle)
How it was run: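 Eight-week-old Sprague-Dawley rats (n=6) dosed by oral gavage with compound or water vehicle, then kept in metabolic cages with chow and water ad libitum. At 16 h post-dose, urinary sodium measured by ion chromatography and expressed as percent of vehicle mean; fecal form scored 1–5 and averaged over two observations.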

Fecal recovery = type: in vivo, Sprague Dawley rats; conditions: male, Sprague-Dawley, faeces; rat, oral gavage 1 mg/kg, collection time 48 h
Protocol: Three male Sprague Dawley rats were administered 1 mg/kg test compound by oral gavage. Feces were collected from study animals from 0-48 or 0-72 hours after dosing, dried by lyophilization, and homogenized. Replicate aliquots of 40-60 mg each were subjected to extraction/protein precipitation with 7:1 acetonitrile:water and centrifuged. Supernatants were diluted 1:10 in 50:50 acetonitrile:water prior to analysis by LC-MS/MS. Compound concentrations, determined by interpolation from a standard calibration curve prepared in blank feces matrix, were converted to the percentage of dosed material recovered by taking into account the total collected fecal matter. The percent recovery for each rat was reported as the mean of the calculations from replicate samples. The overall percent recovery (Fecal Recovery [%]) was reported as the mean percent recovery from three rats. Accurate quality control sample recoveries were confirmed in each run and extraction efficiency was periodically verified.

SMILES | IC50 (human NHE3) | % inhibition (human Preincubation assay) (human NHE3) | FFS (fecal form score) ([1]; oral gavage 10 mg/kg) | response vs control in vivo at 10 mg/kg ([1]; oral gavage 10 mg/kg) | dose excreted (Fecal recovery) | FFS (fecal form score) ([1]; oral gavage 3 mg/kg) | response vs control in vivo at 3 mg/kg ([1]; oral gavage 3 mg/kg)
CN(C)[C@H]1Cc2c(Cl)cc(Cl)cc2[C@@H]1Oc1ccc(S(=O)(=O)NCCOCCOCCNC(=O)NCCCCNC(=O)NCCOCCOCCNS(=O)(=O)c2ccc(O[C@H]3c4cc(Cl)cc(Cl)c4C[C@@H]3N(C)C)cc2)cc1 [Example 1, (S,S)—N,N′-(10,17-dioxo-3,6,21,24-tetraoxa-9,11,16,18-tetraazahexacosane-1,26-diyl)bis(4-((1S,2S)-4,6-dichloro-2-(dimethylamino)-2,3-dihydro-1H-inden-1-yloxy)benzenesulfonamide)] | < 100 nM | C (>70%) | 1 | < 35% | 87.7% |  | 
N[C@@H]1CCCN([C@H]2Cc3c(Cl)cc(Cl)cc3[C@@H]2Oc2ccc(S(=O)(=O)NCCOCCOCCNC(=O)NCCCCNC(=O)NCCOCCOCCNS(=O)(=O)c3ccc(O[C@H]4c5cc(Cl)cc(Cl)c5C[C@@H]4N4CCC[C@@H](N)C4)cc3)cc2)C1 [Example 3, (S,S,R)—N,N′-(10,17-dioxo-3,6,21,24-tetraoxa-9,11,16,18-tetraazahexacosane-1,26-diyl)bis(4-((1S,2S)-2-((R)-3-aminopiperidin-1-yl)-4,6-dichloro-2,3-dihydro-1H-inden-1-yloxy)benzenesulfonamide)] | < 100 nM | C (>70%) |  | 35 to 75% | 69.2% |  | 
CN(C)[C@H]1Cc2c(Cl)cc(Cl)cc2[C@@H]1Oc1ccc(S(=O)(=O)NCCOCCOCCNC(=O)COCC(=O)NCCOCCOCCNS(=O)(=O)c2ccc(O[C@H]3c4cc(Cl)cc(Cl)c4C[C@@H]3N(C)C)cc2)cc1 [Example 9, 2,2′-oxybis(N-(2-(2-(2-(4-((1S,2S)-4,6-dichloro-2-(dimethylamino)-2,3-dihydro-1H-inden-1-yloxy)phenylsulfonamido)ethoxy)ethoxy)ethyl)acetamide)] | < 100 nM | C (>70%) |  |  | 65.7% | 2 | 35 to 75%
CN(C)[C@H]1Cc2c(Cl)cc(Cl)cc2[C@@H]1Oc1ccc(S(=O)(=O)NCCOCCOCCNC(=O)CCC(C)(N)CCC(=O)NCCOCCOCCNS(=O)(=O)c2ccc(O[C@H]3c4cc(Cl)cc(Cl)c4C[C@@H]3N(C)C)cc2)cc1 [Example 11, 4-amino-N1,N7-bis(2-(2-(2-(4-((1S,2S)-4,6-dichloro-2-(dimethylamino)-2,3-dihydro-1H-inden-1-yloxy)phenylsulfonamido)ethoxy)ethoxy)ethyl)-4-methylheptanediamide] | < 100 nM | C (>70%) |  | 35 to 75% | 82.1% |  | 
O=C(NCCCCNC(=O)NCCOCCOCCNS(=O)(=O)c1ccc(O[C@H]2c3cc(Cl)cc(Cl)c3C[C@@H]2N2CC[C@@H](O)C2)cc1)NCCOCCOCCNS(=O)(=O)c1ccc(O[C@H]2c3cc(Cl)cc(Cl)c3C[C@@H]2N2CC[C@@H](O)C2)cc1 [Example 30] | < 100 nM | C (>70%) |  |  | 66.8% |  | 35 to 75%

Reference: patent publication US10376481B2, “Compounds and methods for inhibiting NHE-mediated antiport in the treatment of disorders associated with fluid retention or salt overload and gastrointestinal tract disorders” (ARDELYX, INC, priority 2012, dated 2019)
